From patent publication US12421225B2, “Heteroaromatic amide derivative and medicament containing the same” (KAKEN PHARMACEUTICAL CO., LTD., priority 2018, dated 2025)
Structures can show the parent of a compound that is named as a salt.

What was measured:
human Nav1.5 = human Nav1.5 (Homo sapiens (Human), UniProt Q14524); assay: Human Nav1.5 inhibitory activity evaluation (automated patch clamp QPatch16X, HEK293 cells stably expressing human Nav1.5); type: cell-based; settings: human Nav1.5, automated patch clamp
Sequence of human Nav1.5 (Q14524 whole entry): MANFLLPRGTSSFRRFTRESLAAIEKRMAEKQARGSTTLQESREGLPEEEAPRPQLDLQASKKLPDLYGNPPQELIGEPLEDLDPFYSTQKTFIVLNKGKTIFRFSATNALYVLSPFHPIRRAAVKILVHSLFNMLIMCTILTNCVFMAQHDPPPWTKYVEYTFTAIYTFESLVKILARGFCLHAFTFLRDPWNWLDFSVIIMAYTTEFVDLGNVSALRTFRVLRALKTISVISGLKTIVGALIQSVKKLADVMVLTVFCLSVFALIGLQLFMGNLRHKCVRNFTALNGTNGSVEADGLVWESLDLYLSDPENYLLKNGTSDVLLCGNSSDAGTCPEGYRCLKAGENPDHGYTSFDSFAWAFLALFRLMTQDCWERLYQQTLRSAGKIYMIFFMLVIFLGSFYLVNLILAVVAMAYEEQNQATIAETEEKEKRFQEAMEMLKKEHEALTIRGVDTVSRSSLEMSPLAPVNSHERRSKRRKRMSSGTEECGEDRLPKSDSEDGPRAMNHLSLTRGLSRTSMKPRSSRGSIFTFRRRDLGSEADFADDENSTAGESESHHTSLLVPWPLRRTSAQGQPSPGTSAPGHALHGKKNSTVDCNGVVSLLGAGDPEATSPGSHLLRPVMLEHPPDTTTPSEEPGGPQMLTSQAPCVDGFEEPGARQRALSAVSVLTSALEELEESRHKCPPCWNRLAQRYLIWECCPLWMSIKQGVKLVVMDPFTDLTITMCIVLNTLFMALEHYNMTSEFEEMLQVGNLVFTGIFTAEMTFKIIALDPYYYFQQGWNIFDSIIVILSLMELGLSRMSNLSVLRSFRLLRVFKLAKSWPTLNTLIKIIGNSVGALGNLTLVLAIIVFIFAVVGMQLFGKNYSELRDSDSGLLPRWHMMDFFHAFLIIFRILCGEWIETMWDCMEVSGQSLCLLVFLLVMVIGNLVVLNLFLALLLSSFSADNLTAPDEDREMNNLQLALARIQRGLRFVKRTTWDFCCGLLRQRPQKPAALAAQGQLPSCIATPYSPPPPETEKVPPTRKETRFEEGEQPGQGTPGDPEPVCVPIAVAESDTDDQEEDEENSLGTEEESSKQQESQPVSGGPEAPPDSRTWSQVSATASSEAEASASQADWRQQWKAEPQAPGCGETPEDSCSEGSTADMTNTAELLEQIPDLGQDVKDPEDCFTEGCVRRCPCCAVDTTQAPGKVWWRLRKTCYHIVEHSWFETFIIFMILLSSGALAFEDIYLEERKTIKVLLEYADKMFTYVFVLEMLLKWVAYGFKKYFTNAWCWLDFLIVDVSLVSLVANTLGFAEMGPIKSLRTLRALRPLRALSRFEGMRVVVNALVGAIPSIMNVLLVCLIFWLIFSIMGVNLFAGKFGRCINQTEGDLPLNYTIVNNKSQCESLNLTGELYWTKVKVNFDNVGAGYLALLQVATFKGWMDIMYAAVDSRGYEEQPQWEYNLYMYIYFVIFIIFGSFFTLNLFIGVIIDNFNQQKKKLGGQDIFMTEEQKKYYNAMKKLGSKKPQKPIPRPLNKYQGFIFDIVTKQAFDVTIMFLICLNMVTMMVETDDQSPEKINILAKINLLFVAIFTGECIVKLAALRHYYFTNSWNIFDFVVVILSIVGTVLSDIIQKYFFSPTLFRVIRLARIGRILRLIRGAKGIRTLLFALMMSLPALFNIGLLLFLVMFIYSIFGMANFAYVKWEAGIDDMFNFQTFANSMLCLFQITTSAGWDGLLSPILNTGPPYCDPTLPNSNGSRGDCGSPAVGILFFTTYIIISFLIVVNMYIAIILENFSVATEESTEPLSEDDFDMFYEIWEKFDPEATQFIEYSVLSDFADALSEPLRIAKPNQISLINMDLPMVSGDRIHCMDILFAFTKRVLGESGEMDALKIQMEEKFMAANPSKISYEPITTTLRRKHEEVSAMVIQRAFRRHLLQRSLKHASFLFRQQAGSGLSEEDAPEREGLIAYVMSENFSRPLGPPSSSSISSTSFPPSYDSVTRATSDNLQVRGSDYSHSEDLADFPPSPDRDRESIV
Method in brief: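 IC50 derived from concentration-response of inward current at the 20th of 20 action-potential-mimicking pulses (holding −80 mV, leak corrected with −100 mV step). HEK293 cells stably expressing human Nav1.5, room temperature, extracellular pH 7.4, intracellular CsF-based pH 7.3, 0.1% DMSO.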

male ICR mice = assay: Effect on acute pain (capsaicin-induced pain-related behavior, hind paw); type: in vivo
Experimental: Test Example 3: Effect on Acute Pain
Six-week old male ICR mice were used for the test. Test compounds were orally administered at 1-10 mg/kg and the mice were habituated to a clear observation cage for 60 minutes. The mice were lightly restrained under no anesthesia and 20 μL of 80 μg/mL (0.8% ethanol-saline) capsaicin solution was injected subcutaneously into the plantar surface of rihgt hind paw of mice. The mice were returned to the observation cage and, from just after that, the duration of pain-related behavior (licking, shaking) occurring in the right hind limb was measured as the reaction time for 5 minutes.
The inhibition rate of the test compound was determined by the following calculation formula. Test compound inhibition rate (%)=100×[1−(response time of test compound administered group/response time of vehicle control group)]

human Nav1.7 = human Nav1.7 (Homo sapiens (Human), UniProt Q15858); assay: Human Nav1.7 inhibitory activity evaluation (automated patch clamp QPatch16X, HEK293A cells stably expressing human Nav1.7 and human Navβ1); type: cell-based; settings: human Nav1.7, automated patch clamp
Sequence of human Nav1.7 (Q15858 whole entry): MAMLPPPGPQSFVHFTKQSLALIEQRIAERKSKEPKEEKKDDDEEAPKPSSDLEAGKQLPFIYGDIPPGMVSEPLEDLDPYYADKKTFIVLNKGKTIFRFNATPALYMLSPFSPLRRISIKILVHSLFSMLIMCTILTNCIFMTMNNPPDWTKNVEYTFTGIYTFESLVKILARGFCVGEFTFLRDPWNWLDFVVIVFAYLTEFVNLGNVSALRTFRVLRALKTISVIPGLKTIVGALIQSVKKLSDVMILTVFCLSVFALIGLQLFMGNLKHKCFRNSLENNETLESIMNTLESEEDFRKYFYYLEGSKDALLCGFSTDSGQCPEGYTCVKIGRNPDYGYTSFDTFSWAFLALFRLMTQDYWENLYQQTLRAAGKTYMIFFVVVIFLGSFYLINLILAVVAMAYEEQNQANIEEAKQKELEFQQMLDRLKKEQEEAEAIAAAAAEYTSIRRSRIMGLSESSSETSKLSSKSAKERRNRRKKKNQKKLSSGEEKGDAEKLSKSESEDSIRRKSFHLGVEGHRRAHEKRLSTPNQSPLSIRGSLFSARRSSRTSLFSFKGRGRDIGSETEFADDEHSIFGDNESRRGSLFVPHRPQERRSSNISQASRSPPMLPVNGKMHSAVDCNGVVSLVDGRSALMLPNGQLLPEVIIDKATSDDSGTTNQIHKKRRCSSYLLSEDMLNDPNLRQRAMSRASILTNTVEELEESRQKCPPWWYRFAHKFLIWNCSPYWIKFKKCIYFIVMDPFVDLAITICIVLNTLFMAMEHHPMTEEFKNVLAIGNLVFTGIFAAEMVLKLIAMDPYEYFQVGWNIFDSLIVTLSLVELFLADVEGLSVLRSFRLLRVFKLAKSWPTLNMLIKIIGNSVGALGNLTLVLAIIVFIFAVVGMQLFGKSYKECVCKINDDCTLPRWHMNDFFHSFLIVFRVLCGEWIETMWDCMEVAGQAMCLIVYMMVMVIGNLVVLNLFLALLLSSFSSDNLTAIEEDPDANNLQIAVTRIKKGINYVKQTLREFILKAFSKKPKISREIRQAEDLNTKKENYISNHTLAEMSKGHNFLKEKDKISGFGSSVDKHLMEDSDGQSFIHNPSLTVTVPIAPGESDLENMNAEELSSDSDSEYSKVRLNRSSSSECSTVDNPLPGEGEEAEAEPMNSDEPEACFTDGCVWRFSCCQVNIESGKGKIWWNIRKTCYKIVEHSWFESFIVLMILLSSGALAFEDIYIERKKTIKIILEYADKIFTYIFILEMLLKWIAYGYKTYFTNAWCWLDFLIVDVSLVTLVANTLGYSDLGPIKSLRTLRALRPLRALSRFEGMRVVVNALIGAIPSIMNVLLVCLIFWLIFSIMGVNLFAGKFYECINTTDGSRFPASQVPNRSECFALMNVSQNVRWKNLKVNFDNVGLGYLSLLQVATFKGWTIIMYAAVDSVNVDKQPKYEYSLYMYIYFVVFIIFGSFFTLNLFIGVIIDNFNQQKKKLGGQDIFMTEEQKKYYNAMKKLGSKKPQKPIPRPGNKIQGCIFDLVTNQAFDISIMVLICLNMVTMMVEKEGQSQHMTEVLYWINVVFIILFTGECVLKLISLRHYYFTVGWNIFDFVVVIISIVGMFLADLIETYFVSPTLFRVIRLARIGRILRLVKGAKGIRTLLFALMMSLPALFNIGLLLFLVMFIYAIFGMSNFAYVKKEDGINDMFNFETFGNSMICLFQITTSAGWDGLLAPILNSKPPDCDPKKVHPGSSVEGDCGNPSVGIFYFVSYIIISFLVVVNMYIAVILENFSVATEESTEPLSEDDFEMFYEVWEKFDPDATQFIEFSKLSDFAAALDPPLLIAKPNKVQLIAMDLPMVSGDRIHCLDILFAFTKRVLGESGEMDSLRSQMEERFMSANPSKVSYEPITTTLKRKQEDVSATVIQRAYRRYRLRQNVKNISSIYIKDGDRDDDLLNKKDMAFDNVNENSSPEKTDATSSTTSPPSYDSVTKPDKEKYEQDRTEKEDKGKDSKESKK
Sequence of human Nav1.7 (Q07699 19-218 partner): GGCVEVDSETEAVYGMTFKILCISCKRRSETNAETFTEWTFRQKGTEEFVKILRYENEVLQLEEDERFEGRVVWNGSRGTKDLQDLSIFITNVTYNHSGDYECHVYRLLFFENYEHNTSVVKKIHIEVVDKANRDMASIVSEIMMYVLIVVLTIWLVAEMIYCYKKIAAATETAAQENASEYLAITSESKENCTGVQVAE
Method in brief: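 IC50 calculated from the concentration-response of inward current evoked by the second −10 mV, 50 ms depolarisation, which follows a 15 s conditioning step at roughly 30-40% inactivation and a 100 ms −120 mV interval. Cells: HEK293A expressing human Nav1.7/Navβ1, automated patch clamp, room temperature, 0.1% DMSO final.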

**Q.** Which IC50 (human Nav1.5) does the source give for `N#Cc1ccc2c(c1)C[C@@H](NC(=O)c1cc3n(n1)CCC(CCOC(F)(F)F)O3)CO2` (single isomer, unassigned) [144 (isomer B)] here?
**A.** Its IC50 is at least 3000 nM.

**Q.** And the “Inhibition rate (%)” value (male ICR mice)?
**A.** Its value is “A (Compounds with an inhibition rate of 30% or more are indicated by the letter “A”)”.

**Q.** With `Cn1ccc(-c2ccc3c(c2)C[C@@H](NC(=O)c2cc4n(n2)CC(CCOC(F)(F)F)O4)CO3)n1` (single isomer, unassigned) [213 (isomer B)] as the molecule, how does the “Inhibition rate (%)” value (male ICR mice) read?
**A.** The value was “B (compounds with an inhibition rate of 20% or more and less than 30% are indicated by the letter “B”)”.

**Q.** Which “Inhibition rate (%)” value (male ICR mice) does the source give for `CCC1CCn2nc(C(=O)N[C@H]3COc4ccc(C#N)cc4C3)cc2O1` (single isomer, unassigned) [Example 92 (isomer B)] here?
**A.** Its value is “A (Compounds with an inhibition rate of 30% or more are indicated by the letter “A”)”.

**Q.** How did the “Inhibition rate (%)” value (male ICR mice) turn out when `O=C(N[C@H]1COc2ccc(Cl)cc2C1)c1cn2c(n1)CCC(C(F)(F)F)C2` (single isomer, unassigned; isomer a) [Example 288, hydrochloride] was run?
**A.** Its value is “A (Compounds with an inhibition rate of 30% or more are indicated by the letter “A”)”.

**Q.** What does the source list for `O=C(N[C@H]1COc2ccc(Cl)cc2C1)c1cc2n(n1)CCN(CC(C(F)(F)F)C(F)(F)F)C2` [Example 493]?
**A.** IC50 (human Nav1.7): < 1000 nM; IC50 (human Nav1.5): 1000 to 3000 nM

**Q.** How did the IC50 (human Nav1.7) turn out when `O=C(N[C@H]1COc2ccc(Cl)cc2C1)c1cc2n(n1)CCN(CC1CCC1(F)F)C2` (stereo partly shown) [Example 494] was run?
**A.** Its IC50 is under 1000 nM.

**Q.** And the IC50 (human Nav1.5)?
**A.** Its IC50 is 1000 to 3000 nM.

**Q.** For `O=C(N[C@H]1COc2ccc(Cl)cc2C1)c1cc2n(n1)CCN(CC(F)(F)C1CC1)C2` [Example 495], which IC50 (human Nav1.7) is on record?
**A.** The IC50 was under 1000 nM.

**Q.** And the IC50 (human Nav1.5)?
**A.** The IC50 was at least 3000 nM.

**Q.** Which IC50 (human Nav1.7) does the source give for `N#Cc1ccc2c(c1)C[C@@H](NC(=O)c1cc3n(n1)CCN(CCC1CCC1)C3)CO2` [Example 496] here?
**A.** Its IC50 is under 1000 nM.

**Q.** And the IC50 (human Nav1.5)?
**A.** The IC50 was 1000 to 3000 nM.

**Q.** `N#Cc1ccc2c(c1)C[C@@H](NC(=O)c1cc3n(n1)CCN(Cc1ccccc1F)C3)CO2` [Example 497] was tested. Which IC50 (human Nav1.7) did it give?
**A.** Its IC50 is under 1000 nM.

**Q.** What about the IC50 (human Nav1.5) of the same molecule?
**A.** The IC50 was at least 3000 nM.

**Q.** Which results are given for `N#Cc1ccc2c(c1)C[C@@H](NC(=O)c1cc3n(n1)CCN(Cc1ccccc1C(F)(F)F)C3)CO2` [Example 499]?
**A.** IC50 (human Nav1.7): < 1000 nM; IC50 (human Nav1.5): 1000 to 3000 nM

**Q.** With `CC(C)(CC1CC1)N1CCn2nc(C(=O)N[C@H]3COc4ccc(C#N)cc4C3)cc2C1` [Example 502] as the molecule, how does the IC50 (human Nav1.7) read?
**A.** Its IC50 is under 10000 nM.

**Q.** What about the IC50 (human Nav1.5) of the same molecule?
**A.** The IC50 was 1000 to 3000 nM.

**Q.** Which IC50 (human Nav1.7) does the source give for `O=C(N[C@H]1COc2ccc(CC(F)F)cc2C1)c1cc2n(n1)CCN(CCC1CC1)C2` [Example 504] here?
**A.** The IC50 was under 1000 nM.

**Q.** And the IC50 (human Nav1.5)?
**A.** Its IC50 is 1000 to 3000 nM.

**Q.** How did the IC50 (human Nav1.7) turn out when `O=C(N[C@H]1COc2ccc(C(F)(F)F)cc2C1)c1cc2n(n1)CCN(CCC(F)(F)F)C2` [Example 506] was run?
**A.** The IC50 was under 1000 nM.

**Q.** What about the IC50 (human Nav1.5) of the same molecule?
**A.** The IC50 was 1000 to 3000 nM.

**Q.** What does the source list for `O=C(N[C@H]1COc2ccc(COCC(F)(F)F)cc2C1)c1cc2n(n1)CCN(CCC(F)(F)F)C2` [Example 507]?
**A.** IC50 (human Nav1.7): < 1000 nM; IC50 (human Nav1.5): ≥ 3000 nM

**Q.** `Cn1ccc(-c2c(C(=O)N[C@H]3COc4ccc(C(F)(F)F)cc4C3)nn3c2COCC3)n1` [Example 518] was tested. Which IC50 (human Nav1.7) did it give?
**A.** Its IC50 is under 1000 nM.

**Q.** And the IC50 (human Nav1.5)?
**A.** The IC50 was 1000 to 3000 nM.

**Q.** Which results are given for `O=C(N[C@H]1COc2ccc(C(F)(F)F)cc2C1)c1nn2c(c1C(O)c1ccccn1)COCC2` (stereo partly shown) [Example 530]?
**A.** IC50 (human Nav1.7): < 10000 nM; IC50 (human Nav1.5): ≥ 3000 nM

**Q.** For `O=C(N[C@H]1COc2ccc(C(F)(F)F)cc2C1)c1nn2c(c1CCc1ccccn1)COCC2` [Example 531], which IC50 (human Nav1.7) is on record?
**A.** Its IC50 is under 10000 nM.

**Q.** And the IC50 (human Nav1.5)?
**A.** The IC50 was 1000 to 3000 nM.

**Q.** What does the source list for `N#CC1(COCC2CCn3nc(C(=O)N[C@H]4COc5ccc(Cl)cc5C4)cc3O2)CC1` (stereo partly shown) [Example 538]?
**A.** IC50 (human Nav1.7): < 1000 nM; IC50 (human Nav1.5): ≥ 3000 nM

**Q.** With `CC(C)(F)C1CCn2nc(C(=O)N[C@H]3COc4ccc(C#N)cc4C3)cc2O1` (stereo partly shown) [Example 540] as the molecule, how does the IC50 (human Nav1.7) read?
**A.** Its IC50 is under 1000 nM.

**Q.** And the IC50 (human Nav1.5)?
**A.** Its IC50 is 1000 to 3000 nM.

**Q.** Which IC50 (human Nav1.7) does the source give for `N#Cc1ccc2c(c1)C[C@@H](NC(=O)c1cc3n(n1)CC(C(F)(F)COCC1CC1)O3)CO2` (stereo partly shown) [Example 541] here?
**A.** Its IC50 is under 1000 nM.

**Q.** What about the IC50 (human Nav1.5) of the same molecule?
**A.** The IC50 was at least 3000 nM.

**Q.** With `CC1CCn2nc(C(=O)N[C@H]3COc4ccc(COCC(F)(F)F)cc4C3)cc2OC1` (stereo partly shown) [Example 543] as the molecule, how does the IC50 (human Nav1.7) read?
**A.** Its IC50 is under 10000 nM.

**Q.** And the IC50 (human Nav1.5)?
**A.** The IC50 was at least 3000 nM.

**Q.** With `COC1c2cc(C(F)(F)F)ccc2OC[C@@H]1NC(=O)c1cc2n(n1)CCC(C(F)F)O2` (stereo partly shown) [Example 568] as the molecule, how does the IC50 (human Nav1.7) read?
**A.** Its IC50 is under 1000 nM.

**Q.** What about the IC50 (human Nav1.5) of the same molecule?
**A.** The IC50 was at least 3000 nM.

**Q.** With `O=C(N[C@H]1COc2ccc(C(F)(F)F)cc2C1O)c1cc2n(n1)CCN(CCC1CC1)C2` (stereo partly shown) [Example 593] as the molecule, how does the IC50 (human Nav1.7) read?
**A.** The IC50 was under 10000 nM.

**Q.** And the IC50 (human Nav1.5)?
**A.** Its IC50 is 1000 to 3000 nM.
